This is an account of results in patent US20220306659A1, “COMPOUND INHIBITING AND INDUCING DEGRADATION OF EGFR AND ALK” (BEIJING TIDE PHARMACEUTICAL CO., LTD., priority 2019, published 2022).

For one assay, the target named is T1, Ba/F3(EML4-ALK) cells (Homo sapiens, UniProt Q9UM73).
T1 construct: fused on or other part: Q9HC35 (Echinoderm microtubule-associated protein-like 4)
Briefly: Assay of activity on Ba/F3(EML4-ALK) cells (CTG, 72 h). It is filed as cell-based. The conditions noted are these: read-out: IC50 (nM) Ba/F3(EML4-ALK). A digest of the protocol:
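Ba/F3(EML4-ALK) cells, 700 per well, were exposed to 3-fold serial compound dilutions for 72 h at 37° C, 5% CO2, and viability was then read by CTG luminescence.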

Assay [1] addresses Ba/F3(EGFR^L858R/T790M/C797S) cells (Homo sapiens, UniProt P00533, T790M/C797S/L858R, cells depend on it). Briefly: Assay of activity on Ba/F3 cells (CTG, 72 h). Format: cell-based. The conditions noted are these: read-out: IC50 (nM) Ba/F3 (EGFR^L858R/T790M/C797S). Put shortly: (§1)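 Ba/F3 cells dependent on each EGFR triple mutant were exposed to 3-fold compound dilutions for 72 h at 37° C, 5% CO2, with CellTiter-Glo luminescence as the read-out.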

The target in assay [2] is Ba/F3(EGFR^Del19/T790M/C797S) cells (Homo sapiens, UniProt P00533, DEL746-750/T790M/C797S, cells depend on it). Briefly: Assay of activity on Ba/F3 cells (CTG, 72 h). Format: cell-based. The conditions noted are these: read-out: IC50 (nM) Ba/F3 (EGFR^Del19/T790M/C797S). Put shortly:
as §1

Assay [3] concerns the target T2, EGFR^Del19/T790M/C797S (Homo sapiens, UniProt P00533, C797S/DEL746-750/T790M). Briefly: EGFR inhibitory activity assay (TK-substrate-biotin/ATP, 665/615 ratio). The conditions noted are these: kinase inhibition. It is filed as biochemical. As for the experimental part: EGFR Inhibitory Activity Assay
(2) The plate was sealed, and centrifuged at 1,000 g for 1 min;
(4) 5 μl of the 2×EGFR protein working solution was added to the 384-well plate from step (2), centrifuged at 1,000 g for 30 s, and allowed to stand at room temperature (mixed thoroughly) for 10 min;
(6) 5 µL of the TK-substrate-biotin and ATP (the mixture prepared in step (5)) was added to the 384-well plate from step (4) to initiate the reaction;
(7) The mixture was centrifuged at 1,000 g for 30 s; the plate was sealed, and allowed to stand (and reacted) at room temperature for 40 min;
(10) The mixture was centrifuged at 1,000 g for 30 s, and allowed to stand (reacted) at room temperature for 1 h;
Formula of inhibition rate (%): […]
The nonlinear regression curve (dose response-variable slope) between the value of inhibition rate (%) and the logarithm of compound concentration was fitted with graphpad prism 8.0, the effect dose curve of compound was drawn, and the IC50 value was calculated.

For assay [4], the target named is T3, EGFR^L858R/T790M/C797S (Homo sapiens, UniProt P00533, C797S/L858R/T790M). The description is as above. Format: biochemical. The conditions noted are these: kinase inhibition. Put shortly: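 HTRF kinase assay: enzyme preincubated with compound 10 min at room temperature, then reacted with biotinylated TK substrate and ATP for 40 min at room temperature.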
The next assay has as its target ALK^G1202R (Homo sapiens, UniProt Q9UM73, G1202R). Briefly: Assay of activity on ALK kinase. Format: biochemical. Particulars: kinase inhibition.
In the next assay the target is ALK (Homo sapiens, UniProt Q9UM73). Briefly: Assay of activity on ALK kinase. Format: biochemical. Particulars: kinase inhibition.
ALK, sequence (Q9UM73 19-1620): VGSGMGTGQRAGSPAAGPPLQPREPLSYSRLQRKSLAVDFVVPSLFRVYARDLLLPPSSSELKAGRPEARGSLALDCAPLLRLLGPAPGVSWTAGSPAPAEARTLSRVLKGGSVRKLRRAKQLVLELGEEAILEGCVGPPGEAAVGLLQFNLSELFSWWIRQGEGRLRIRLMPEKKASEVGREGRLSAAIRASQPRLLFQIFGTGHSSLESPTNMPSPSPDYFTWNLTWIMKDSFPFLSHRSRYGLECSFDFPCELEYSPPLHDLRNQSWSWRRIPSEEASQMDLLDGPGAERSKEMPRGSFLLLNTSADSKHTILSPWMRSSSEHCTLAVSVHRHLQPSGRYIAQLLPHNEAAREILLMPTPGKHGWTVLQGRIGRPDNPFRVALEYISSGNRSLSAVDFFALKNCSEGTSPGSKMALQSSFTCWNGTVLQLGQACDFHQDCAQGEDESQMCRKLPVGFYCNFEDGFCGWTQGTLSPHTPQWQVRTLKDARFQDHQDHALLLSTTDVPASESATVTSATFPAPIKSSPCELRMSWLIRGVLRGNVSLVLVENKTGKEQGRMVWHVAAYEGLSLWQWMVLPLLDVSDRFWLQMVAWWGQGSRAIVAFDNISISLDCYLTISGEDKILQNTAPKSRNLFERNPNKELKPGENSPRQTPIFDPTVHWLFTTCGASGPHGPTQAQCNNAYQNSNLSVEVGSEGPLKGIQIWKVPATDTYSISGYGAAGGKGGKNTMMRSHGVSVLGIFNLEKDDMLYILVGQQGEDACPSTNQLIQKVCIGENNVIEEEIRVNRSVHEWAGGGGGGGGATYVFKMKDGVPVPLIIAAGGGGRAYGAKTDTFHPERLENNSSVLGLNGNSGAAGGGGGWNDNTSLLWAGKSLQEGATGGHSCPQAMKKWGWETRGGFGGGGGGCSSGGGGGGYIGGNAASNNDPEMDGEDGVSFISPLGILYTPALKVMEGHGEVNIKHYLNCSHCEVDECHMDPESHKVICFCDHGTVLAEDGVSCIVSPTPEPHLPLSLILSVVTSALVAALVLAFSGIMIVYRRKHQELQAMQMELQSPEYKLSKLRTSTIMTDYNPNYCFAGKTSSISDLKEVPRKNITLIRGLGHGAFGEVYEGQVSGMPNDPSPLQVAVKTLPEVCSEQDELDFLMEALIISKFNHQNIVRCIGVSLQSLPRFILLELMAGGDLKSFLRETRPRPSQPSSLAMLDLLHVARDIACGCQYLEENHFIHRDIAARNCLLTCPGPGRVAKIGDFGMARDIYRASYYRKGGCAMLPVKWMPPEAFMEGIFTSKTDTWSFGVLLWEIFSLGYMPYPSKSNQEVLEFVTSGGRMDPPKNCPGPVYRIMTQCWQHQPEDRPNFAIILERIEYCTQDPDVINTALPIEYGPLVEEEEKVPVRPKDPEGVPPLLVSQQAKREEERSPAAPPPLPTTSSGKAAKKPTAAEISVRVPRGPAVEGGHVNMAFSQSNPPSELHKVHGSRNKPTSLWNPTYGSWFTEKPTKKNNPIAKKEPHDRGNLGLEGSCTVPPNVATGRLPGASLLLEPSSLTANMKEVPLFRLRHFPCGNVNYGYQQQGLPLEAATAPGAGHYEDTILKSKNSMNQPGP
Assay [5] has as its target T3, EGFR^L858R/T790M/C797S. Briefly: Assay of activity of compounds to induce EGFR protein degradation (Alpha counts). Format: cell-based. Also noted: expressed in transfected cells; host or cells: Ba/F3. Particulars: 24 h. The text has this:
(§2) Assay of activity of compounds to induce EGFR^58R/IT790M/C797S and EGFR^Dell9/T790M/C797S protein degradation
(§3) In order to further explain the reason why the compounds of the present disclosure have inhibitory activity on Ba/F3(EGFR^58R/IT790M/C797S) and Ba/F3(EGFR^Dell9/T790M/C797S) cells, representative compounds C176 and C213 were selected to study the mechanism of action of the compounds, and observe their effects on EGFR^58R/IT790M/C797S and EGFR^Dell9/T790M/C797S protein levels.
(§4) Ba/F3(EGFR^58R/IT790M/C797S) and Ba/F3(EGFR^Dell9/T790M/C797S) cells were cultured according to the culture conditions recommended by ATCC, and analyzed by index.
(§5) Complete medium: 1640 medium, 10% FBS, 1× glutamine, 1× penicillin-streptomycin.
(§6) Culture conditions: incubated at 37° C., 95% air, 5% CO2 incubator.
(§7) (2) Compound stock solution: 10 mM stock solution in DMSO, stored at −20° C.
(§8) (3) Preparation of cell suspension:
(§9) The cells in the cell culture bottle were collected, and the cells with viability of >90% can be used in the assay. Cells were seeded in a 96-well plate with 40 μL cells, 1*10^5 cells/well.
(§10) Compound was diluted 3× with DMSO, starting at 1.0 mM (for EGFR^58R/IT790M/C797S assay) and 5 mM (for EGFR^Dell9/T790M/C797S assay), respectively, into 10 concentrations to prepare working solutions.
(§11) (5) Compound was pipetted into the 96-well plate to treat cells in a 37° C., 95% air, 5% CO2 incubator for 24 h.
(§12) 1) 1 μg/mL of EGF activated cells were treated for 10 min;
(§13) 2) After the compound treatment, lysis buffer was added to lyse cells; 10 μL of cell lysate was transferred to a 384-well plate; in addition, control lysate and negative control plus 5 μL of acceptor mix were added to the 384-well plate, and shaken on a shaker for 1-2 min;
(§14) 3) 5 μL of donor mix was added to each well; the 384-well plate was sealed, shaken on a shaker for 1-2 min, left in the dark at room temperature overnight, and read with an enzyme labeling instrument.
(§15) Alpha counts were fitted by logarithmic treatment of compound concentration with Graphpad Prism 8.0.
(§16) Y=Bottom+(Top−Bottom)/(1+10^((LogIC50−X)*HillSlope))
(§17) X: logarithm of compound concentration; Y: Alpha Counts.

Assay [6] has as its target T2, EGFR^Del19/T790M/C797S. The assay is described as above. It is filed as cell-based. Also noted: expressed in transfected cells; host or cells: Ba/F3. The conditions noted are these: 24 h.
Description: as §2, §3, §4, §5, §6, §7, §8, §9, §10, §11, §12, §13, §14, §15, §16, §17

T1 sequence (Q9UM73 whole entry, change not shown, the tested form may be a part): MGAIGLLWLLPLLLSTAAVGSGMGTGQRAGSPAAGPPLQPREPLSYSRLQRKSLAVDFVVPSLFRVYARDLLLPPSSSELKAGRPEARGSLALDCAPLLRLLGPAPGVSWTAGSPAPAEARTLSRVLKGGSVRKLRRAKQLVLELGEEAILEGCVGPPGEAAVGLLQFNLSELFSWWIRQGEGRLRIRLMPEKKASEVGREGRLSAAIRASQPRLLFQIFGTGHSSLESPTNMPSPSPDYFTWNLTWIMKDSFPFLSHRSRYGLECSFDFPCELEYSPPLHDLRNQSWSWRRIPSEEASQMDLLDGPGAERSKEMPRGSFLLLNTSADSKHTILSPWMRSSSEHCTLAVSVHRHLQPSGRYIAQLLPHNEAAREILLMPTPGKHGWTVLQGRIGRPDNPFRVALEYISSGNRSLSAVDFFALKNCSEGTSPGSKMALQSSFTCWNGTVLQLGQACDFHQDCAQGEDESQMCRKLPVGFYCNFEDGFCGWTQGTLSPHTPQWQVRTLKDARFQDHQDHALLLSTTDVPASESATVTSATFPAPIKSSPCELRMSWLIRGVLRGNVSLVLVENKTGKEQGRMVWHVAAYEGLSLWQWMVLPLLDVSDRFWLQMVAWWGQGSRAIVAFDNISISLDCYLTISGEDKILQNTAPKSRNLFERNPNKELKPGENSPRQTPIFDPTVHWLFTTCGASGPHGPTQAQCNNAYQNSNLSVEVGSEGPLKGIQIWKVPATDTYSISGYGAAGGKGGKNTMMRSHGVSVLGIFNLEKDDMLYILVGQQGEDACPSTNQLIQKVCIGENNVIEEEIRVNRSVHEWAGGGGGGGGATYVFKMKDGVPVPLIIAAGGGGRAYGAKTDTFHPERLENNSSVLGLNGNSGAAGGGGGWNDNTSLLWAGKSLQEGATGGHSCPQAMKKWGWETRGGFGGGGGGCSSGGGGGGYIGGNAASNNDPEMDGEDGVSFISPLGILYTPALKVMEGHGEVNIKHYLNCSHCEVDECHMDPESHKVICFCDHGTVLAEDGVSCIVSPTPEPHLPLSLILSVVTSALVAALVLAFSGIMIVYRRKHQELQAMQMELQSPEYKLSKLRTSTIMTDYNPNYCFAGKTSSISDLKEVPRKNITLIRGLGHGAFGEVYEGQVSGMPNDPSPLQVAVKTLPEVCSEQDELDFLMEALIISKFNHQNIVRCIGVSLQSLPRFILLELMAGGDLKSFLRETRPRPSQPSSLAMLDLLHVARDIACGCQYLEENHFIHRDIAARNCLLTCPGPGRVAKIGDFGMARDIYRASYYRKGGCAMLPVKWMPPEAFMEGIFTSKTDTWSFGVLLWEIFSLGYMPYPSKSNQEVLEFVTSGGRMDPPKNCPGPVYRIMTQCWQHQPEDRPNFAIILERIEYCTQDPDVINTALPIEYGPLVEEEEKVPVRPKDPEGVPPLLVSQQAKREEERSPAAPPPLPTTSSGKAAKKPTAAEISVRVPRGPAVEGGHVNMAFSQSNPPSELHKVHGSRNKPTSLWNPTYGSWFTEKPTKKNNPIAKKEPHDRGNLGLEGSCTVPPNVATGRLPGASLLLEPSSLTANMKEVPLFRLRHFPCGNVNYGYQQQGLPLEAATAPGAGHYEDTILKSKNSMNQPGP
ALK^G1202R, sequence (Q9UM73 19-1620 G1202R): as the sequence (Q9UM73 19-1620) above, with G1184R counted along it

What is called IC50 is the concentration at which inhibition is half-maximal. Regarding `COc1cc(N2CCC(N3CCN(CCCCCCCOc4cccc5c4C(=O)N(C4CCC(=O)NC4=O)C5=O)CC3)CC2)ccc1Nc1ncc(Cl)c(Nc2ccccc2P(C)(C)=O)n1` (centres unmarked) [Compound A10, 4-((7-(4-(1-(4-((5-chloro-4-((2-(dimethylphosphoryl)phenyl)amino)pyrimidin-2-yl)amino)-3-methoxyphenyl)piperidin-4-yl)piperazin-1-yl)heptyl)oxy)-2-(2,6-dioxopiperidin-3-yl)isoindoline-1,3-dione], the GI50 (at Ba/F3(EML4-ALK) cells; in assay [1]; in [2]) was 1 to 100 nM each time. For the same molecule, the IC50 at EGFR^Del19/T790M/C797S [3] lay within 1 to 100 nM; at EGFR^L858R/T790M/C797S [4], 1 to 100 nM; on ALK^G1202R, 101 to 200 nM; against ALK, 1 to 100 nM.

With `COc1cc(N2CCC(N3CCN(CCCCCCCCCOc4cccc5c4C(=O)N(C4CCC(=O)NC4=O)C5=O)CC3)CC2)ccc1Nc1ncc(Cl)c(Nc2ccccc2P(C)(C)=O)n1` (centres unmarked) [Compound A11, 4-((9-(4-(1-(4-((5-chloro-4-((2-(dimethylphosphoryl)phenyl)amino)pyrimidin-2-yl)amino)-3-methoxyphenyl)piperidin-4-yl)piperazin-1-yl)nonyl)oxy)-2-(2,6-dioxopiperidin-3-yl)isoindoline-1,3-dione], the GI50 on Ba/F3(EML4-ALK) cells lay in the range of 1 to 100 nM; in assay [1], 101 to 200 nM; in [2], 1 to 100 nM. Further, the half-inhibitory concentration (IC50) at EGFR^Del19/T790M/C797S [3] was 1 to 100 nM; at EGFR^L858R/T790M/C797S [4] it was 1 to 100 nM; at ALK^G1202R, 101 to 200 nM; at ALK it was 1 to 100 nM.

As for `COc1cc(N2CCC(N3CCN(CCOCC#Cc4cccc5c4CN(C4CCC(=O)NC4=O)C5=O)CC3)CC2)ccc1Nc1ncc(Cl)c(Nc2ccccc2P(C)(C)=O)n1` (centres unmarked) [Compound C176, 3-(4-(3-(2-(4-(1-(4-((5-chloro-4-((2-(dimethylphosphoryl)phenyl)amino)pyrimidin-2-yl)amino)-3-methoxyphenyl)piperidin-4-yl)piperazin-1-yl)ethoxy)prop-1-yn-1-yl)-1-oxoisoindolin-2-yl)piperidine-2,6-dione], the GI50 (on Ba/F3(EML4-ALK) cells; in assay [1]) was 1 to 100 nM each time. For the same molecule, the IC50 at EGFR^L858R/T790M/C797S [4] lay within 1 to 100 nM. Moreover, the DC50 on EGFR^L858R/T790M/C797S [5] (Ba/F3(EGFR^L858R/T790M/C797S) cells, 0.01 nM to 1000 nM, FIG. 1, read-out: DC50 of EGFR^L858R/T790M/C797S protein level) worked out at 31.4 nM. For the same molecule, the “effect on EGFR^L858R/T790M/C797S protein level (in words)” value on EGFR^L858R/T790M/C797S [5] (Ba/F3 cells, dose-dependent) is “significantly reduces”.

With `COc1cc(N2CCC3(CCN(CCCCCOc4cccc5c4CN(C4CCC(=O)NC4=O)C5=O)CC3)CC2)c(C)cc1Nc1ncc(Br)c(Nc2ccc3nccnc3c2P(C)(C)=O)n1` (centres unmarked) [Compound C213, 3-(4-((5-(9-(4-((5-bromo-4-((5-(dimethylphosphoryl)quinoxalin-6-yl)amino)pyrimidin-2-yl)amino)-5-methoxy-2-methylphenyl)-3,9-diazaspiro[5.5]undecan-3-yl)pentyl)oxy)-1-oxoisoindolin-2-yl)piperidine-2,6-dione], the GI50 in [1] and in [2] was 1 to 100 nM each time. At EGFR^Del19/T790M/C797S [6] (Ba/F3(EGFR^Del19/T790M/C797S) cells, 0.1 nM to 10000 nM, FIG. 2, read-out: DC50 of EGFR^Del19/T790M/C797S protein level), the DC50 is 11.3 nM. At EGFR^Del19/T790M/C797S [6] (Ba/F3 cells, dose-dependent), the “effect on EGFR^Del19/T790M/C797S protein level (in words)” value is “significantly reduces”.
